System: SARS-CoV-2
Assay: cell-based anti-viral assay using Vero E6 cell line, viral RNA by qRT-PCR
Conditions: Vero E6 cells, 48 h; for ΔCt (1 μM) / inhibition at 1 µM: 1 μM compound; for ΔCt (1 μM) / ΔCt (5 μM): increase in Ct vs no-drug control; for ΔCt (5 μM) / inhibition at 5 µM: 5 μM compound; for inhibition at 1 µM / inhibition at 5 µM: Severe acute respiratory syndrome coronavirus 2, Vero C1008, calculated from ΔCt; for inhibition at 1 µM: read-out: % SARS-CoV-2 Inactivation (1 μM); for inhibition at 5 µM: read-out: % SARS-CoV-2 Inactivation (5 μM)

Compound	ΔCt (1 μM)	ΔCt (5 μM)	inhibition at 1 µM	inhibition at 5 µM
FC(F)(F)c1cc(Nc2nc3ccc(C(F)(F)F)cc3[nH]2)cc(C(F)(F)F)c1 [Example 31, N-(3,5-bis(trifluoromethyl)phenyl)-6-(trifluoromethyl)-1H-benzo[d]imidazol-2-amine]	5.3	9	> 95%	> 99%
FC(F)(F)c1cccc(Nc2nc3ccc(C(F)(F)F)cc3[nH]2)c1 [Example 32, 6-(trifluoromethyl)-N-(3-(trifluoromethyl)phenyl)-1H-benzo[d]imidazol-2-amine]	0.2	9.3	< 3%	> 99%
FC(F)(F)c1ccc(Nc2nc3ccc(C(F)(F)F)cc3[nH]2)cc1 [Example 33, 6-(trifluoromethyl)-N-(4-(trifluoromethyl)phenyl)-1H-benzo[d]imidazol-2-amine]	1.4	14.3	< 3%	100%
FC(F)(F)c1cc(Nc2nc3c(C(F)(F)F)cccc3[nH]2)cc(C(F)(F)F)c1 [Example 34, N-(3,5-bis(trifluoromethyl)phenyl)-4-(trifluoromethyl)-1H-benzo[d]imidazol-2-amine]	13.1	15.1	> 99.9%	100%
FC(F)(F)c1cccc(Nc2nc3c(C(F)(F)F)cccc3[nH]2)c1 [Example 35, 4-(trifluoromethyl)-N-(3-(trifluoromethyl)phenyl)-1H-benzo[d]imidazol-2-amine]	1.7	7.5	< 3%	99%
FC(F)(F)c1ccc(Nc2nc3c(C(F)(F)F)cccc3[nH]2)cc1 [Example 36, 4-(trifluoromethyl)-N-(4-(trifluoromethyl)phenyl)-1H-benzo[d]imidazol-2-amine]	12	12	> 99.9%	> 99.9%
COc1ccc2nc(Nc3cc(C(F)(F)F)cc(C(F)(F)F)c3)[nH]c2c1 [Example 37, N-(3,5-bis(trifluoromethyl)phenyl)-6-methoxy-1H-benzo[d]imidazol-2-amine]	5	4.3	> 95%	> 90%
Cn1c(Nc2ccccc2)nc2cc(F)c(F)cc21 [Example 38, 5,6-difluoro-1-methyl-N-phenyl-1H-benzo[d]imidazol-2-amine]	0.4	−0.1	< 3%	< 3%
Cn1c(Nc2cc(C(F)(F)F)cc(C(F)(F)F)c2)nc2cc(F)c(F)cc21 [Example 39, N-(3,5-bis(trifluoromethyl)phenyl)-5,6-difluoro-1-methyl-1H-benzo[d]imidazol-2-amine]	0.5	1	< 3%	< 3%
CN(c1cccc(C(F)(F)F)c1)c1nc2c(C(F)(F)F)cc(C(F)(F)F)cc2[nH]1 [Example 40, N-methyl-4,6-bis(trifluoromethyl)-N-(3-(trifluoromethyl)phenyl)-1H-benzo[d]imidazol-2-amine]	5	12.2	> 95%	> 99.9%
CN(c1cc(C(F)(F)F)cc(C(F)(F)F)c1)c1nc2c(C(F)(F)F)cc(C(F)(F)F)cc2[nH]1 [Example 41, N-(3,5-bis(trifluoromethyl)phenyl)-N-methyl-4,6-bis(trifluoromethyl)-1H-benzo[d]imidazol-2-amine]	3.8	13.4	> 90%	> 99.9%
CN(c1cccc(C(F)(F)F)c1)c1nc2cccc(C(F)(F)F)c2[nH]1 [Example 42, N-methyl-7-(trifluoromethyl)-N-(3-(trifluoromethyl)phenyl)-1H-benzo[d]imidazol-2-amine]	1	2.1	< 3%	< 3%
CN(c1ccc(C(F)(F)F)cc1)c1nc2cccc(C(F)(F)F)c2[nH]1 [Example 43, N-methyl-7-(trifluoromethyl)-N-(4-(trifluoromethyl)phenyl)-1H-benzo[d]imidazol-2-amine]	1.8	3.6	< 3%	> 90%
CN(c1cc(C(F)(F)F)cc(C(F)(F)F)c1)c1nc2cccc(C(F)(F)F)c2[nH]1 [Example 44, N-(3,5-bis(trifluoromethyl)phenyl)-N-methyl-7-(trifluoromethyl)-1H-benzo[d]imidazol-2-amine]	1.4	5	< 3%	> 95%

From patent US20260042743A1, “SUBSTITUTED BENZIMIDAZOLES FOR TREATING VIRAL DISEASES” (COUNCIL OF SCIENTIFIC AND INDUSTRIAL RESEARCH, priority 2022, published 2026)
